Legend:
[1] = acute oral toxicity in rats; conditions: rat, in vivo, single oral dose
Protocol: (§1) An aqueous solution of [2-(4-amino-2,6-dibromophenoxy)ethyl]dimethyl (2-methylallyl)ammonium chloride is administered orally to several groups of male and female Sprague-Dawley derived rats and male and female Swiss mice (Cox strain). The compound is administered as single oral dosages in varying amounts, and the animals are held to assess toxicity twenty-four hours after administration of the compound.

[2] = acute oral toxicity in mice; conditions: mouse, in vivo, single oral dose
Protocol: as §1

C=C(C)C[N+](C)(C)CCOc1c(Br)cc(N)cc1Br.[Cl-] [Example 1, [2-(4-amino-2,6-dibromophenoxy)ethyl]-dimethyl(2-methylallyl)ammonium chloride]
LD50 at 24 h ([1]; female rats): 725 mg/kg | LD50 at 24 h ([1]; male rats): 758 mg/kg | LD50 at 24 h ([2]; female mice): 550 mg/kg | LD50 at 24 h ([2]; male mice): 560 mg/kg

— patent publication US3932664A, “Substituted phenoxyalkyl quaternary ammonium compounds as antiarrhythemic agents” (priority 1974, dated 1976)
